# Measurements from the supplement of paper PMC10307832.
# Experiments:
# Assay in all cases: relative viability (nuclei count vs DMSO), 5 days (fraction); higher = more cells survive
# Mirin + Bortezomib = compound: N=C1NC(=O)/C(=C/c2ccc(O)cc2)S1 [Mirin] + CC(C)C[C@H](NC(=O)[C@H](Cc1ccccc1)NC(=O)c1cnccn1)B(O)O [Bortezomib] (partner 0.002 µM)
# Outline: (§1)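 Relative viability equals treated-well nuclei counts divided by vehicle-well nuclei counts. Counts came from 4× images of lung cancer cell lines grown in 1536-well plates for 5 days after pin-tool dosing on the day after seeding. Dosing used one drug alone or a fixed anchor-drug dose plus five library-drug doses (not always all listed) in √10 steps, and values are medians of duplicate plates.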
# [1] = compound: CCn1c(-c2nonc2N)nc2cnc(Oc3cccc(NC(=O)c4ccc(OCCN5CCOCC5)cc4)c3)cc21 + COc1cc2c(Oc3ccc(NC(=O)C4(C(=O)Nc5ccc(F)cc5)CC4)cc3F)ccnc2cc1OCCCN1CCOCC1 [Foretinib] (partner 0.25 µM)
# Outline: as §1
# [2] = compound: CCC1=CN=CN=C1N2CCN(CC2)CC3=NC4=C(N3)C=C(C=C4)C(F)(F)F + COc1cc2c(Oc3ccc(NC(=O)C4(C(=O)Nc5ccc(F)cc5)CC4)cc3F)ccnc2cc1OCCCN1CCOCC1 [Foretinib] (partner 0.25 µM)
# Outline: as §1
# Mirin + Luminespib = compound: N=C1NC(=O)/C(=C/c2ccc(O)cc2)S1 [Mirin] + CCNC(=O)c1noc(-c2cc(C(C)C)c(O)cc2O)c1-c1ccc(CN2CCOCC2)cc1 [Luminespib] (partner 0.01 µM)
# Outline: as §1
Cell Line,relative viability (Mirin + Bortezomib; first compound 0.25 µM),relative viability (Mirin + Bortezomib; first compound 0.7906 µM),relative viability (Mirin + Bortezomib; first compound 2.5 µM),relative viability (Mirin + Bortezomib; first compound 7.906 µM),relative viability (Mirin + Bortezomib; first compound 25 µM),relative viability ([1]; first compound 0.04 µM),relative viability ([1]; first compound 0.1265 µM),relative viability ([1]; first compound 0.4 µM),relative viability ([1]; first compound 1.265 µM),relative viability ([1]; first compound 4 µM),relative viability ([2]; first compound 0.04 µM),relative viability ([2]; first compound 0.1265 µM),relative viability ([2]; first compound 0.4 µM),relative viability ([2]; first compound 1.265 µM),relative viability ([2]; first compound 4 µM),relative viability (Mirin + Luminespib; first compound 0.25 µM),relative viability (Mirin + Luminespib; first compound 0.7906 µM),relative viability (Mirin + Luminespib; first compound 2.5 µM),relative viability (Mirin + Luminespib; first compound 7.906 µM),relative viability (Mirin + Luminespib; first compound 25 µM)
NCI-H1651,0.912,0.959,0.931,0.854,0.916,1,0.963,0.959,0.662,0.455,0.934,0.704,0.861,0.709,0.667,0.851,0.694,0.833,0.854,0.784
HARA,1.09,1.11,1.17,1.1,1.17,1.13,1.09,0.906,0.939,0.883,0.85,0.952,0.836,,0.828,0.808,,0.693,0.773,0.372
NCI-H2405,1.02,0.765,0.967,0.972,1.01,1.23,0.999,0.485,0.342,0.384,1.06,1.02,1.06,,1.12,0.624,0.586,0.664,0.702,0.649
201T,1.12,1.12,1.2,1.18,1.23,1.28,1.11,1.05,0.555,0.598,1.21,1.07,1.09,1.02,1.07,1.05,1.11,1.08,1.09,1.14
PC-3 [JPC-3],0.768,0.889,0.841,0.941,0.967,1.06,1.08,1.11,1.01,0.942,1.08,0.9,0.997,0.964,0.971,0.664,0.732,0.758,0.651,0.787
NCI-H1650,0.196,0.2,0.216,0.208,0.191,1.19,1.32,1.49,1.23,0.969,1.26,0.893,0.931,,0.808,0.183,0.176,0.175,0.18,0.179
